One assay concerns HT1080 cells. As to the kind of experiment: Tumor cell apoptosis / viability (MTT). It counts as cell-based, human. From the text:
(§1) Cell viability was examined employing 3-(4,5-dimethylthiazol-2-yl)-2,5-diphenyl tetrazolium bromide (MTT) (Cabello et al. Int. J. Oncol. 23, 697-704 (2003)).

The subject of the next assay is T24 cells. As to the kind of experiment: Tumor cell apoptosis / viability (MTT). It counts as cell-based, human.
Source text: as §1

Another assay deals with Rac1 (Homo sapiens, UniProt P63000). Nature of the assay: Co-IP ESI-MS of thioguanine nucleotide disulfide adduct in T cells. Details: endogenous in cells. It counts as cell-based. The settings on record: for thioguanine nucleotide-Rac1 disulfide adduct: activated T cells, FIGS. 21, 27. Here is the method:
FIG. 21. Detection of 6-TGNP adduct from A7r5 and T cells. Experimental procedures using A7r5 (A and B) and T (C and D) cells, respectively, were identical to those of the experiments described in FIG. 19 and previous studies (Tiede et al. J. Clin. Invest. 111, 1133-1145 (2003); and Poppe et al. J. Immunol. 176, 640-651 (2006)). The cell extract was incubated with a monoclonal RhoA antibody (A and B) or a Rac1 antibody (C and D) coupled with resin. Resin was collected by centrifugation (5,000×g, 10 min), which was suspended in 50% methanol:0.1% formic acid. The protein portion was separated by brief centrifugation (3,000×g for 5 min), resuspended in a buffer containing 10 mM EDTA and 5 mM phosphate (pH 7.5), digested with trypsin for 10 h, and analyzed with MS. The MS peak at 1476.6 Da represents peptide-6-TGDP adduct; TC^20LLIVFSK-6-TGDP.
FIG. 27. Detection of 8-TGNP adduct from T and A7r5 cells. […] The indicated MS peak at 1476.6 Da represents peptide-8-TGDP adduct; TC^20LLIVFSK-8-TGDP (SEQ ID NO:4). The molecular weight of the peptide-8-TGDP adduct is exactly the same as that of the peptide-6-TGDP adduct.

Another assay addresses RhoC (Homo sapiens, UniProt P08134). Nature of the assay: Co-IP mass spectrometry of thioguanine nucleotide disulfide adduct. Format: cell-based. The arrangement: endogenous in cells; host or cells: SUM149, SUM102, SW480, HCCLM3 (endogenous); HME-RhoC (transfected with wild type RhoC). The procedure:
FIG. 6. Detection of unusual 6-TGNP adduct from HME-RhoC cells. […] A monoclonal RhoC antibody (Biocompare, South San Francisco, Calif.) and a “Mammalian Co-Immunoprecipitation Kit” (Pierce) were used for the analyses of the RhoC 6-TGNP interaction in HME-RhoC cells. The immunoprecipitated RhoC sample was suspended in 50% methanol:0.1% formic acid. The protein portion and RhoC-released nucleotide were separated by a brief centrifugation (3000×g for 5 min). The protein portion from the immunoprecipitated RhoC was resuspended in the assay buffer (pH 7.5), digested with trypsin for 10 h, and analyzed with MALDI-TOF tandem mass spectrometry. The MALDI-TOF peak at 1476.6 Da represents peptide-6-TGDP adduct; TC^20LLIVFSK-6-TGDP (SEQ ID NO:4).
FIG. 15. Detection of unusual 6-TGNP adduct from SUM and HME-RhoC cells. The ESI-MS and MS/MS methods to detect and identify a chemically modified RhoC residue are described elsewhere herein. […] The left and right columns, respectively, denote any of the RhoC samples taken from SUM and HME cells. As indicated, a mixture of samples taken from untreated SUM149 and SUM102 cells was used as a control for the experiment shown in the left column. For the right column, a mixture of samples taken from HME-RhoC and […] cells was used as a control. (B) A MS/MS analysis was performed with the ESI-MS sample of 6-TG-treated SUM149 cells to identify a biomolecule that have a mass of 1481.6 Da. […]
Cell lysates in an extraction buffer were incubated with a monoclonal anti-RhoC antibody precoupled to glutathione-agarose beads. […] The protein portion from the immunoprecipitated RhoC was resuspended in a buffer containing 1 mM EDTA and 0.1 mM DTPA in 50 mM TrisHCl (pH 7.4), then digested with trypsin for 10 h, and analyzed with electrospray mass spectrometry (ESI-MS) and tandem mass spectrometry (MS/MS) in the positive ion mode ([molecular mass+H]^+).

The mark [1] stands for this setting: 6-TG 1 μM every 48 h with DETA/NO or GSNO 10 μM, longer than ~10 days.
Setting [2] is: 8-TG 1 μM with NO donor (DETA/NO or GSNO 10 μM), not shown.

Sequence of RhoC (P08134 whole entry): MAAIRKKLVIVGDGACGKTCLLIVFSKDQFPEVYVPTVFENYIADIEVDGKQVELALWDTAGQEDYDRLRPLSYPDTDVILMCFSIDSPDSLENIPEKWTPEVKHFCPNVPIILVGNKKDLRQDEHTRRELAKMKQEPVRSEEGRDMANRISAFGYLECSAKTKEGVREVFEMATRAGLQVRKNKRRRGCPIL

`Nc1nc2nc[nH]c2c(=S)[nH]1` [6-TG, 6-thioguanine]: the “viability of 6-TG-resisting cells” value with HT1080 cells (setting [1]) and in the assay on T24 cells (setting [1]) was “decrease in the viability” in each case. In addition, the “apoptosis within a day” value in the assay on HT1080 cells (6-TG 1 μM, not shown) was “most cells underwent apoptosis”; in the assay on T24 cells (6-TG 1 μM, not shown), “most cells underwent apoptosis”. Moreover, the “initial cells that resisted additional treatment” value in the assay with HT1080 cells (6-TG 1 μM, not shown) is on record as ~20%; with T24 cells (6-TG 1 μM, not shown), ~20%. On Rac1 (T cells, both 6-TG and NO, intensity not truly quantitative), the “MS peak representing 6-TGNP-Rac1 adduct” value is listed as “increased”. Also, at Rac1, the “thioguanine nucleotide-Rac1 disulfide adduct” value is given as “has been identified”. In addition, at RhoC (6-TG in the presence of a NO donor), the “peak assigned to RhoC-6-TGDP adduct” value is recorded as “increased”. Also, the “peptide-6-TGDP adduct (TC20LLIVFSK-6-TGDP) by MALDI-TOF” value at RhoC (HME-RhoC cells, 6-TG 1 μM every 48 h, 5 days, FIG. 6) is “detected”. Besides, the “RhoC-derived peptide-6-TGDP disulfide adduct mass peak by ESI-MS” value at RhoC (co-IPed RhoC from SUM149 and HME-RhoC cells treated with 6-TG, FIG. 15A) was “commonly exhibited”.

On to `Nc1nc2[nH]c(S)nc2c(=O)[nH]1` [8-TG, 2-amino-8-mercapto-1H-purin-6(9H)-one], for which the “viability and anchorage-independent growth” value in the assay on HT1080 cells (setting [2]) and in the assay on T24 cells (setting [2]) was “did not affect” throughout. Moreover, on Rac1, the “thioguanine nucleotide-Rac1 disulfide adduct” value is “biologically inactive 8-TGNP-Rac1 disulfide adduct”.

The record behind these values is patent publication US8729047B2, “Compositions for inhibiting redox-sensitive GTPases” (Board of Regents, The University of Texas System, priority 2010, dated 2014).
